According to PubChem BioAssay (NCI):
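Method: 48-hour compound exposure of cells in 96-well plates, five concentrations, linear interpolation of endpoints. TGI denotes the concentration required for complete inhibition of growth.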

Legend:
Assay in all cases: growth of human tumour cells (NCI), 48 h
A498 renal = tested on: A498 renal
A549 NSCLC = tested on: A549 NSCLC
ACHN renal = tested on: ACHN renal
CAKI-1 renal = tested on: CAKI-1 renal
CCRF-CEM leukemia = tested on: CCRF-CEM leukemia
COLO 205 colon = tested on: COLO 205 colon
DLD-1 colon = tested on: DLD-1 colon
DMS 114 small cell lung = tested on: DMS 114 small cell lung
DMS 273 small cell lung = tested on: DMS 273 small cell lung
EKVX NSCLC = tested on: EKVX NSCLC
HCC-2998 colon = tested on: HCC-2998 colon
HCT-116 colon = tested on: HCT-116 colon
HCT-15 colon = tested on: HCT-15 colon
HL-60(TB) leukemia = tested on: HL-60(TB) leukemia
HOP-18 NSCLC = tested on: HOP-18 NSCLC
HOP-62 NSCLC = tested on: HOP-62 NSCLC
HOP-92 NSCLC = tested on: HOP-92 NSCLC
HT29 colon = tested on: HT29 colon
IGROV1 ovarian = tested on: IGROV1 ovarian
K-562 leukemia = tested on: K-562 leukemia
KM12 colon = tested on: KM12 colon
KM20L2 colon = tested on: KM20L2 colon
M14 melanoma = tested on: M14 melanoma
M19-MEL melanoma = tested on: M19-MEL melanoma
MALME-3M melanoma = tested on: MALME-3M melanoma
MOLT-4 leukemia = tested on: MOLT-4 leukemia
NCI-H226 lung = tested on: NCI-H226 lung
NCI-H23 lung = tested on: NCI-H23 lung
NCI-H522 lung = tested on: NCI-H522 lung
OVCAR-3 ovarian = tested on: OVCAR-3 ovarian
OVCAR-4 ovarian = tested on: OVCAR-4 ovarian
OVCAR-5 ovarian = tested on: OVCAR-5 ovarian
OVCAR-8 ovarian = tested on: OVCAR-8 ovarian
RXF-631 renal = tested on: RXF-631 renal
SF-268 CNS = tested on: SF-268 CNS
SF-295 CNS = tested on: SF-295 CNS
SF-539 CNS = tested on: SF-539 CNS
SK-MEL-2 melanoma = tested on: SK-MEL-2 melanoma
SK-MEL-28 melanoma = tested on: SK-MEL-28 melanoma
SK-MEL-5 melanoma = tested on: SK-MEL-5 melanoma
SK-OV-3 ovarian = tested on: SK-OV-3 ovarian
SN12C renal = tested on: SN12C renal
SNB-75 CNS = tested on: SNB-75 CNS
SNB-78 CNS = tested on: SNB-78 CNS
SR leukemia = tested on: SR leukemia
SW-620 colon = tested on: SW-620 colon
TK-10 renal = tested on: TK-10 renal
U251 CNS = tested on: U251 CNS
UACC-257 melanoma = tested on: UACC-257 melanoma
UACC-62 melanoma = tested on: UACC-62 melanoma
UO-31 renal = tested on: UO-31 renal
786-0 renal = tested on: 786-0 renal
LOX IMVI melanoma = tested on: LOX IMVI melanoma
LXFL 529 NSCLC = tested on: LXFL 529 NSCLC
RPMI-8226 leukemia = tested on: RPMI-8226 leukemia
RXF 393 renal = tested on: RXF 393 renal
SNB-19 CNS = tested on: SNB-19 CNS
XF 498 CNS = tested on: XF 498 CNS
NCI-H460 lung = tested on: NCI-H460 lung

O=P(Nc1ccccc1)(Oc1ccccc1)N(CCCl)CCCl (stereo unspecified)
TGI (A498 renal): > 100 µM | TGI (A549 NSCLC): > 100 µM | TGI (ACHN renal): > 100 µM | TGI (CAKI-1 renal): > 100 µM | TGI (CCRF-CEM leukemia): > 100 µM | TGI (COLO 205 colon): > 100 µM | TGI (DLD-1 colon): > 100 µM | TGI (DMS 114 small cell lung): > 100 µM | TGI (DMS 273 small cell lung): > 100 µM | TGI (EKVX NSCLC): > 100 µM | TGI (HCC-2998 colon): > 100 µM | TGI (HCT-116 colon): > 100 µM | TGI (HCT-15 colon): > 100 µM | TGI (HL-60(TB) leukemia): > 100 µM | TGI (HOP-18 NSCLC): > 100 µM | TGI (HOP-62 NSCLC): > 100 µM | TGI (HOP-92 NSCLC): > 100 µM | TGI (HT29 colon): > 100 µM | TGI (IGROV1 ovarian): > 100 µM | TGI (K-562 leukemia): > 100 µM | TGI (KM12 colon): > 100 µM | TGI (KM20L2 colon): > 100 µM | TGI (M14 melanoma): > 100 µM | TGI (M19-MEL melanoma): > 100 µM | TGI (MALME-3M melanoma): > 100 µM | TGI (MOLT-4 leukemia): > 100 µM | TGI (NCI-H226 lung): > 100 µM | TGI (NCI-H23 lung): > 100 µM | TGI (NCI-H522 lung): 28.8 µM | TGI (OVCAR-3 ovarian): > 100 µM | TGI (OVCAR-4 ovarian): > 100 µM | TGI (OVCAR-5 ovarian): > 100 µM | TGI (OVCAR-8 ovarian): > 100 µM | TGI (RXF-631 renal): > 100 µM | TGI (SF-268 CNS): > 100 µM | TGI (SF-295 CNS): > 100 µM | TGI (SF-539 CNS): > 100 µM | TGI (SK-MEL-2 melanoma): > 100 µM | TGI (SK-MEL-28 melanoma): > 100 µM | TGI (SK-MEL-5 melanoma): > 100 µM | TGI (SK-OV-3 ovarian): 44.2 µM | TGI (SN12C renal): > 100 µM | TGI (SNB-75 CNS): > 100 µM | TGI (SNB-78 CNS): > 100 µM | TGI (SR leukemia): > 100 µM | TGI (SW-620 colon): > 100 µM | TGI (TK-10 renal): > 100 µM | TGI (U251 CNS): > 100 µM | TGI (UACC-257 melanoma): > 100 µM | TGI (UACC-62 melanoma): > 100 µM | TGI (UO-31 renal): 28.2 µM

NCCNC(=O)c1cccc2cc3ccccc3nc12
TGI (786-0 renal): > 68.4 µM | TGI (A498 renal): 5.88 µM | TGI (A549 NSCLC): > 100 µM | TGI (CAKI-1 renal): > 23.4 µM | TGI (DLD-1 colon): 18.6 µM | TGI (DMS 114 small cell lung): 6.66 µM | TGI (DMS 273 small cell lung): > 100 µM | TGI (EKVX NSCLC): 17.5 µM | TGI (HCC-2998 colon): 21.2 µM | TGI (HCT-116 colon): 8.06 µM | TGI (HCT-15 colon): 15 µM | TGI (HOP-18 NSCLC): > 40.9 µM | TGI (HOP-62 NSCLC): 5.02 µM | TGI (HOP-92 NSCLC): > 100 µM | TGI (HT29 colon): 6.5 µM | TGI (IGROV1 ovarian): > 28.6 µM | TGI (K-562 leukemia): 6.16 µM | TGI (KM12 colon): 20.4 µM | TGI (KM20L2 colon): 12.5 µM | TGI (LOX IMVI melanoma): 2.76 µM | TGI (LXFL 529 NSCLC): > 36.6 µM | TGI (M14 melanoma): 11 µM | TGI (M19-MEL melanoma): 5.34 µM | TGI (MALME-3M melanoma): 3.29 µM | TGI (MOLT-4 leukemia): 1.94 µM | TGI (NCI-H226 lung): 3.61 µM | TGI (NCI-H23 lung): 10.6 µM | TGI (NCI-H522 lung): > 100 µM | TGI (OVCAR-3 ovarian): 15.4 µM | TGI (OVCAR-4 ovarian): 15.2 µM | TGI (OVCAR-5 ovarian): 14.6 µM | TGI (OVCAR-8 ovarian): > 22.2 µM | TGI (RPMI-8226 leukemia): > 100 µM | TGI (RXF 393 renal): 10.2 µM | TGI (RXF-631 renal): 16.7 µM | TGI (SF-268 CNS): 3.73 µM | TGI (SF-295 CNS): > 20.9 µM | TGI (SF-539 CNS): 16.9 µM | TGI (SK-MEL-2 melanoma): 7.81 µM | TGI (SK-MEL-28 melanoma): 9.71 µM | TGI (SK-MEL-5 melanoma): > 23.2 µM | TGI (SK-OV-3 ovarian): > 39 µM | TGI (SN12C renal): 20.8 µM | TGI (SNB-19 CNS): 19.1 µM | TGI (SNB-75 CNS): 27.7 µM | TGI (SNB-78 CNS): 37 µM | TGI (SR leukemia): 53.8 µM | TGI (SW-620 colon): > 34.1 µM | TGI (TK-10 renal): 21.2 µM | TGI (U251 CNS): 9.04 µM | TGI (UACC-257 melanoma): 8.81 µM | TGI (UACC-62 melanoma): 8.34 µM | TGI (UO-31 renal): > 28.5 µM | TGI (XF 498 CNS): 6.04 µM

N/N=C(\c1nc2ccc(Cl)cc2[nH]c1=O)C(O)c1ccc(Cl)c(Cl)c1 (stereo unspecified)
TGI (786-0 renal): > 100 µM | TGI (A549 NSCLC): > 100 µM | TGI (ACHN renal): > 100 µM | TGI (CCRF-CEM leukemia): > 100 µM | TGI (COLO 205 colon): > 100 µM | TGI (DLD-1 colon): > 100 µM | TGI (DMS 114 small cell lung): > 100 µM | TGI (DMS 273 small cell lung): > 100 µM | TGI (EKVX NSCLC): > 100 µM | TGI (HCC-2998 colon): > 100 µM | TGI (HCT-116 colon): > 100 µM | TGI (HCT-15 colon): > 100 µM | TGI (HL-60(TB) leukemia): > 100 µM | TGI (HOP-62 NSCLC): > 100 µM | TGI (HOP-92 NSCLC): > 100 µM | TGI (HT29 colon): > 100 µM | TGI (IGROV1 ovarian): > 100 µM | TGI (K-562 leukemia): > 100 µM | TGI (KM12 colon): > 100 µM | TGI (KM20L2 colon): > 100 µM | TGI (LOX IMVI melanoma): > 100 µM | TGI (LXFL 529 NSCLC): > 100 µM | TGI (M14 melanoma): > 100 µM | TGI (M19-MEL melanoma): > 100 µM | TGI (MALME-3M melanoma): > 100 µM | TGI (MOLT-4 leukemia): > 100 µM | TGI (NCI-H226 lung): > 100 µM | TGI (NCI-H23 lung): > 100 µM | TGI (NCI-H460 lung): > 100 µM | TGI (NCI-H522 lung): > 100 µM | TGI (OVCAR-3 ovarian): > 100 µM | TGI (OVCAR-4 ovarian): 87.8 µM | TGI (OVCAR-5 ovarian): > 100 µM | TGI (OVCAR-8 ovarian): > 100 µM | TGI (RPMI-8226 leukemia): > 100 µM | TGI (RXF 393 renal): > 100 µM | TGI (RXF-631 renal): > 100 µM | TGI (SF-268 CNS): > 100 µM | TGI (SF-295 CNS): > 100 µM | TGI (SF-539 CNS): > 100 µM | TGI (SK-MEL-2 melanoma): > 100 µM | TGI (SK-MEL-28 melanoma): > 100 µM | TGI (SK-MEL-5 melanoma): > 100 µM | TGI (SK-OV-3 ovarian): > 100 µM | TGI (SN12C renal): > 100 µM | TGI (SNB-19 CNS): > 100 µM | TGI (SNB-75 CNS): > 100 µM | TGI (SNB-78 CNS): > 100 µM | TGI (SR leukemia): > 100 µM | TGI (SW-620 colon): > 100 µM | TGI (TK-10 renal): > 100 µM | TGI (U251 CNS): > 100 µM | TGI (UACC-257 melanoma): > 100 µM | TGI (UACC-62 melanoma): > 100 µM | TGI (UO-31 renal): > 100 µM | TGI (XF 498 CNS): > 100 µM
